Source: the supplement of paper PMC10307832

What was measured:
Assay in all cases: relative viability (nuclei count vs DMSO), 5 days (fraction); higher = more cells survive
Pictilisib + Tozasertib = compound: CS(=O)(=O)N1CCN(Cc2cc3nc(-c4cccc5[nH]ncc45)nc(N4CCOCC4)c3s2)CC1 [Pictilisib] + Cc1cc(Nc2cc(N3CCN(C)CC3)nc(Sc3ccc(NC(=O)C4CC4)cc3)n2)n[nH]1 [Tozasertib] (partner 0.1 µM)
Procedure, shortened: (§1)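 Relative viability equals treated-well nuclei counts divided by vehicle-well nuclei counts. Counts came from 4× images of lung cancer cell lines grown in 1536-well plates for 5 days after pin-tool dosing on the day after seeding. Dosing used one drug alone or a fixed anchor-drug dose plus five library-drug doses (not always all listed) in √10 steps, and values are medians of duplicate plates.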

Pictilisib + Alpelisib = compound: CS(=O)(=O)N1CCN(Cc2cc3nc(-c4cccc5[nH]ncc45)nc(N4CCOCC4)c3s2)CC1 [Pictilisib] + Cc1nc(NC(=O)N2CCC[C@H]2C(N)=O)sc1-c1ccnc(C(C)(C)C(F)(F)F)c1 [Alpelisib] (partner 2 µM)
Procedure, shortened: as §1

MK-2206 + Navitoclax = compound: NC1(c2ccc(-c3nc4ccn5c(=O)[nH]nc5c4cc3-c3ccccc3)cc2)CCC1 [MK-2206] + CC1(C)CCC(c2ccc(Cl)cc2)=C(CN2CCN(c3ccc(C(=O)NS(=O)(=O)c4ccc(N[C@H](CCN5CCOCC5)CSc5ccccc5)c(S(=O)(=O)C(F)(F)F)c4)cc3)CC2)C1 [Navitoclax] (partner 0.5 µM)
Procedure, shortened: as §1

MK-2206 + Foretinib = compound: NC1(c2ccc(-c3nc4ccn5c(=O)[nH]nc5c4cc3-c3ccccc3)cc2)CCC1 [MK-2206] + COc1cc2c(Oc3ccc(NC(=O)C4(C(=O)Nc5ccc(F)cc5)CC4)cc3F)ccnc2cc1OCCCN1CCOCC1 [Foretinib] (partner 0.25 µM)
Procedure, shortened: as §1

MK-2206 + Olaparib = compound: NC1(c2ccc(-c3nc4ccn5c(=O)[nH]nc5c4cc3-c3ccccc3)cc2)CCC1 [MK-2206] + O=C(c1cc(Cc2n[nH]c(=O)c3ccccc23)ccc1F)N1CCN(C(=O)C2CC2)CC1 [Olaparib] (partner 8 µM)
Procedure, shortened: as §1

Row | Cell Line | relative viability (Pictilisib + Tozasertib; first compound 0.02 µM) | relative viability (Pictilisib + Tozasertib; first compound 0.06325 µM) | relative viability (Pictilisib + Tozasertib; first compound 0.6325 µM) | relative viability (Pictilisib + Tozasertib; first compound 2 µM) | relative viability (Pictilisib + Alpelisib; first compound 0.02 µM) | relative viability (Pictilisib + Alpelisib; first compound 0.06325 µM) | relative viability (Pictilisib + Alpelisib; first compound 0.6325 µM) | relative viability (Pictilisib + Alpelisib; first compound 2 µM) | relative viability (MK-2206 + Navitoclax; first compound 0.01 µM) | relative viability (MK-2206 + Navitoclax; first compound 0.03162 µM) | relative viability (MK-2206 + Navitoclax; first compound 0.3162 µM) | relative viability (MK-2206 + Navitoclax; first compound 1 µM) | relative viability (MK-2206 + Foretinib; first compound 0.01 µM) | relative viability (MK-2206 + Foretinib; first compound 0.03162 µM) | relative viability (MK-2206 + Foretinib; first compound 0.3162 µM) | relative viability (MK-2206 + Foretinib; first compound 1 µM) | relative viability (MK-2206 + Olaparib; first compound 0.01 µM) | relative viability (MK-2206 + Olaparib; first compound 0.03162 µM) | relative viability (MK-2206 + Olaparib; first compound 0.3162 µM) | relative viability (MK-2206 + Olaparib; first compound 1 µM)
1 | HCC-827 | 0.436 | 0.441 | 0.312 | 0.2 | 1.02 | 0.829 | 0.892 | 0.518 | 1.06 | 1.12 | 1.04 | 1.01 | 1.13 | 1.05 | 0.945 | 0.984 | 0.671 | 0.678 | 0.506 | 0.523
2 | SW 1573 | 0.164 | 0.174 | 0.146 | 0.137 | 0.891 | 0.766 | 0.658 | 0.532 | 0.876 | 0.937 | 0.714 | 0.737 | 0.833 | 1.28 | 0.755 | 0.956 | 0.5 | 0.466 | 0.396 | 0.393
3 | NCI-H2023 | 0.416 | 0.403 | 0.197 | 0.0836 | 0.546 | 0.488 | 0.445 | 0.32 | 0.985 | 1.06 | 0.895 | 0.716 | 0.943 | 0.972 | 0.922 | 0.722 | 0.463 | 0.506 | 0.436 | 0.44
4 | EPLC-272H | 0.26 | 0.231 | 0.206 | 0.179 | 1.06 | 0.877 | 0.826 | 0.738 | 0.915 | 1.18 | – | 1.08 | 0.811 | 0.686 | 0.649 | 0.633 | 0.855 | 0.673 | 0.796 | 0.527
5 | SK-LU-1 | 0.362 | 0.304 | 0.3 | 0.233 | 1.16 | 1.29 | 0.895 | 0.713 | 1.01 | 0.992 | 1.08 | 0.874 | 0.844 | 0.776 | 0.814 | 0.791 | 0.47 | 0.457 | 0.47 | 0.371
6 | NCI-H1395 | 0.715 | 0.722 | 0.773 | 0.473 | 1.11 | 1.03 | 0.855 | 0.531 | 1.17 | 1.63 | 1.12 | 0.927 | 1.03 | 0.966 | 0.885 | 0.922 | 0.492 | 0.49 | 0.418 | 0.411
7 | NCI-H2085 | 0.765 | 0.733 | 0.52 | 0.3 | 1.01 | 0.959 | 0.74 | 0.419 | 1.09 | 1.19 | 0.902 | 0.825 | 0.921 | 1.07 | 1 | 0.735 | 0.778 | 0.858 | 0.786 | 0.732
8 | NCI-H2087 | 0.232 | 0.228 | 0.168 | 0.187 | 1.22 | 1.06 | 1.02 | 0.954 | 1.14 | 0.905 | 0.906 | 0.912 | 1.11 | 1.1 | 1.17 | 1.08 | 0.641 | 0.552 | 0.592 | 0.51
